Results from patent publication US10677783B2, “Method for evaluating effect of cytokine on metabolic activity of cytochrome P450, and drug screening method” (Corning Incorporated, priority 2012, dated 2020).

Test system: CYP3A4
Experiment: CYP3A4 mRNA expression by RT-qPCR in spheroid-shaped FLC-4 cells (example, MICRO-SPACE)
Format: cell-based, human
Text: A plurality of culture chambers 10a are formed on the bottom culture surface of each well 21a. Each culture chamber 10a includes culture rooms 11a each having the equivalent diameter D of 200 μm and the height H of 100 μm. The width W of each wall 12a is 10 μm.
As cells to be cultured, FLC-4 cells which are established hepatocyte cell lines […] were used.
As a culture medium, a DMEM/F 12 culture medium containing 10% fetal bovine serum (FBS) was used. A cell suspension was adjusted at a cell seeding density of 16×10^5 cells/mL.
The cells were cultured in a CO2 incubator for 10 to 11 days. The culture medium was replaced once every three days.
The total amount of old culture medium was removed from each well by using a pipette (culture medium removing process).
A test solution or a control solution was added to each well (test solution addition process).
The cells were incubated in a CO2 incubator for eight hours, 24 hours, or 48 hours at 37° C. (contact process).
The test solution was obtained in such a manner that the cytokine was dissolved at each concentration shown in Table 1 in a DMEM/F12 solution (DMEM/E12 FBS(−)) containing no serum.
In an RNA extraction, one sample corresponding to two wells 21a of the culture plate 1a was extracted according to the protocol of NucleoSpin® RNAII (Macherey-Nagel). Only the portion to be subjected to Dnase treatment was modified, and DNaseI recombinant, RNase-free (Roche, Branchburg, N.J., USA) was used. The total RNA underwent reverse transcription reaction using High-Capacity cDNA Reverse Transcription Kits (Applied. Biosystems, Foster City, Calif., USA) and an attached random hexamer primer, and the first strand cDNA was synthesized.
The analysis was made using a total amount of 20 μL of reaction liquid containing 9.6 μL of EagleTaq Master Mix with ROX (Roche, Branchburg, N.J., USA), 0.96 μL of 20× Assays-on-Demand™ Gene Expression Assay Mix (Applied Biosystems), 7.1 μL of sterilized MiliQ water, and 1.8 μL of cDNA diluted by a factor of 5, and the reaction liquid was measured by Real-time PCR.

| value of the metabolic function of CYP3A4 (mRNA expression level), third test solution versus second test solution (10 ng/mL EGF + 5 μM Gefitinib vs 10 ng/mL EGF alone, FIG. 20) | Compound | determination of the drug's effect on the drug-metabolizing function of the cytochrome P450 (10 ng/mL EGF + 5 μM Gefitinib, first to third test solutions compared) | gene expression level of CYP3A4 versus contact time (spheroid-shaped established hepatocyte cell line, contact for 0, four and eight hours, FIG. 9) |
| --- | --- | --- | --- |
| three times higher | COc1cc2ncnc(Nc3ccc(F)c(Cl)c3)c2cc1OCCCN1CCOCC1 [Gefitinib, reference compound] | restores the drug-metabolizing function of the cytochrome P450 | – |
| – | interleukin-1β | – | decreases over time |
